≈ marks a conversion by molar mass, not a printed value. Where two headings read alike, the source gives them in different places.
System: C. dubliniensis MYA 577
Experiment: AST broth microdilution, high cell density planktonic mode
Assay type: cell-based
Details: Candida dubliniensis, read-out: Minimum inhibitory concentration (MIC)
Procedure: The in vitro susceptibility of well-characterized wild-type C. albicans strain SC5314, which was provided by Prof. N.A.R. Gow (University of Aberdeen, Aberdeen, UK) was tested against 1280 compounds from the Library of Pharmacologically Active Compounds (LOPAC^1280TM, Sigma–Aldrich, USA). The screen was performed with C. albicans SC5314, and hits were further confirmed with the type strains C. dubliniensis MYA 577, C. glabrata ATCC 2001, C. kusei ATCC 6258, C. palapsilosis ATCC 22019, and C. tropicalis ATCC13803.
To investigate the antifungal effects of the hit compounds, ASTs were conducted using broth microdilution assays with high cell densities of the planktonic mode, adhesion phase and biofilm mode against Candida strains (C. albicans, C. dubliniensis, C. glabrata, C. kusei, C. palapsilosis, and C. tropicalis). First, high density cell (1 × 10^7 cells/mL) suspensions were added to the RPMI medium containing each hit compound (10–1000 μM) in 96-well plates and incubated at 37°C for 24 h. Next, the 50% minimum inhibitory concentrations (MICs) of high-density Candida planktonic cultures were determined using the CellTiter-Glo luminescent cell viability kit, as described above. The antifungal effects of the hit compounds were also evaluated in the adhesion phase and the biofilm mode, in the same manner as the planktonic mode. Candida biofilms were produced as described previously ([Jin et al., 2004]). In brief, Candida cells were grown on SDA at 37°C for 18 h. A loopful of the yeast culture was then inoculated into yeast nitrogen base (YNB) (Difco, USA) medium supplemented with 50 mM glucose. After overnight broth culture in a rotary shaker at 75 rpm, the cells were washed twice with 20 mL of PBS (pH 7.2, 0.1 M). The yeast cells were re-suspended in YNB supplemented with 100 mM glucose and adjusted to an optical density of 0.38 (1 × 10^7 cells/mL) at 520 nm. This standardized cell suspension was used immediately to form biofilms in the wells of 96-well polystyrene culture plates (Iwaki, Tokyo, Japan). First, the cells were incubated for 90 min at 37°C in a shaker at 75 rpm to allow yeast adherence to the well surface (adhesion phase), before the medium was aspirated and each well was washed once with PBS to remove non-adherent cells. YNB containing 100 mM glucose was then pipetted into each well and the plate was incubated at 37°C in a shaker at 75 rpm for 24 h. Non-adherent cells were removed by pipetting and the biofilms were washed twice with PBS. Following this biofilm growth phase, microscopic examination of the cultures was performed to exclude contamination. These ASTs were repeated on three different occasions.

[1] = MYA577, 50% MIC, planktonic mode, 1 × 10^7 cells/mL, 24 h

| SMILES | MIC [1] | MIC (MYA577, 24 h) |
| --- | --- | --- |
| Cc1ccc(S(=O)(=O)/C=C/C#N)cc1 [Bay11-7082] | 3.9 µM (≈ 0.808 µg/mL) |  |
| CC(C)(C)c1ccc(S(=O)(=O)/C=C/C#N)cc1 [Bay11-7085] | 3.9 µM (≈ 0.972 µg/mL) |  |
| Cc1c2ccncc2c(C)c2c1[nH]c1ccccc12 [Ellipticine] | 3.9 µM (≈ 0.961 µg/mL) |  |
| C[n+]1cc2c3c(ccc2c2ccc4cc5c(cc4c21)OCO5)OCO3 [Sanguinarine, Sanguinarine chloride hydrate] |  | < 1 µM |
